Experimental data: BindingDB's records for doi:10.1016/j.bmc.2019.115193 (Stanford University, 2020)

Assay: Inhibition of human DYRK1A transfected in HEK293T cells co-transfected with Renilla plasmid, pGL3-NFAT and NFATc1 assessed as derepression of NFAT-dependent luciferase activity measured after 48 hrs by luciferase assay

**Q.** For CCOC(=O)c1cnc2ccc(-c3ccnc(C)c3)nc2c1N[C@H]1CC[C@H](CN(C)C)CC1, which EC50 is on record?
**A.** The EC50 was 1530 nM.
